According to the NIST ThermoML archive (doi:10.1016/j.tca.2016.09.005):

Experiments:
[1] = xn = mol fraction of the nth substance listed; settings: 100 kPa, Liquid, x1 = 1; for speed of sound: Frequency=3 MHz, Sing-around technique in a fixed-path interferometer; for mass density: Vibrating tube method
[2] = Liquid; for speed of sound / mass density: 100 kPa; for speed of sound: Frequency=3 MHz, Sing-around technique in a fixed-path interferometer; for mass density: Vibrating tube method; for vapor or sublimation pressure: Closed cell (Static) method
[3] = refractive index (Na D-line) (dimensionless); settings: 293.15 K; 101.33 kPa; Liquid; Standard Abbe refractometry

CCO [ethanol] + OCCCO
[1]
Settings | mass density [kg/m3] | speed of sound [m/s]
283.15 K | 798.22 | 1196.8
293.15 K | 789.7 | 1162.3
303.15 K | 781.09 | 1128.2
313.15 K | 772.34 | 1094.6

OCCCO [propan-1,3-diol]
[2]
Settings | mass density [kg/m3] | speed of sound [m/s]
283.15 K | 1058.85 | 1659.5
293.15 K | 1052.61 | 1636.3
303.15 K | 1046.36 | 1613.6
313.15 K | 1040.07 | 1591.1

Settings | refractive index
[3] | 1.4393

CCO [ethanol]
[2]
Settings | mass density [kg/m3] | speed of sound [m/s]
283.15 K | 798.22 | 1196.8
293.15 K | 789.7 | 1162.3
303.15 K | 781.09 | 1128.2
313.15 K | 772.34 | 1094.6

Settings | refractive index
[3] | 1.362

O [water] + OCCCO
[1]
Settings | mass density [kg/m3] | speed of sound [m/s]
283.15 K | 999.68 | –
313.15 K | – | 1529.2

O [water]
[2]
Settings | vapor or sublimation pressure [kPa]
273.15 K | 0.593
283.15 K | 1.21
293.15 K | 2.328
303.15 K | 4.251
313.15 K | 7.411
323.15 K | 12.4
333.15 K | 20
343.15 K | 31.21
353.15 K | 47.3
363.15 K | 69.77

Settings | refractive index
[3] | 1.333

CO [methanol]
[2]
Settings | mass density [kg/m3] | speed of sound [m/s]
283.15 K | 800.67 | 1153.3
293.15 K | 791.28 | 1119.6
303.15 K | 781.84 | 1086.6
313.15 K | 772.3 | 1054.2

Settings | refractive index
[3] | 1.3285

CO [methanol] + OCCCO
[1]
Settings | mass density [kg/m3] | speed of sound [m/s]
283.15 K | 800.67 | 1153.3
293.15 K | 791.28 | 1119.6
303.15 K | 781.84 | 1086.6
313.15 K | 772.3 | 1054.2
